Assays:
Format in all cases: functional
NCI-H226 = assay: cells; conditions: Homo sapiens, time 48 hrs
Description: Growth inhibition of human NCI-H226 cells incubated for 48 hrs by sulforhodamine B assay

SK-MEL-28 = assay: cells; conditions: Homo sapiens, time 48 hrs
Description: Growth inhibition of human SK-MEL-28 cells incubated for 48 hrs by sulforhodamine B assay

[1] = test system: Panel breast (Carcinoma cell lines); assay: cells; conditions: Homo sapiens, time 48 hrs
Description: Growth inhibition of human Panel breast (Carcinoma cell lines) incubated for 48 hrs by sulforhodamine B assay

[2] = test system: Panel NCI-60 (60 carcinoma cell lines); assay: cells; conditions: Homo sapiens, time 48 hrs
Description: Growth inhibition of human Panel NCI-60 (60 carcinoma cell lines) incubated for 48 hrs by sulforhodamine B assay

[3] = test system: Panel ovarian (Carcinoma cell lines); assay: cells; conditions: Homo sapiens, time 48 hrs
Description: Growth inhibition of human Panel ovarian (Carcinoma cell lines) incubated for 48 hrs by sulforhodamine B assay

NCI-H23 = assay: cells; conditions: Homo sapiens, time 48 hrs
Description: Growth inhibition of human NCI-H23 cells incubated for 48 hrs by sulforhodamine B assay

OVCAR-4 = assay: cells; conditions: Homo sapiens, time 48 hrs
Description: Growth inhibition of human OVCAR-4 cells incubated for 48 hrs by sulforhodamine B assay

UACC-62 = assay: cells; conditions: Homo sapiens, time 48 hrs
Description: Growth inhibition of human UACC-62 cells incubated for 48 hrs by sulforhodamine B assay

HT-29 = assay: cells; conditions: Homo sapiens, time 48 hrs
Description: Growth inhibition of human HT-29 cells incubated for 48 hrs by sulforhodamine B assay

KM12 = assay: cells; conditions: Homo sapiens, time 48 hrs
Description: Growth inhibition of human KM12 cells incubated for 48 hrs by sulforhodamine B assay

CCRF-CEM = assay: cells; conditions: Homo sapiens, time 48 hrs
Description: Growth inhibition of human CCRF-CEM cells incubated for 48 hrs by sulforhodamine B assay

IGROV-1 = assay: cells; conditions: Homo sapiens, time 48 hrs
Description: Growth inhibition of human IGROV-1 cells incubated for 48 hrs by sulforhodamine B assay

cells = conditions: Homo sapiens, Non-small cell lung cancer cell line; time 48 hrs
Description: Growth inhibition of human Non-small cell lung cancer cell line incubated for 48 hrs by sulforhodamine B assay

MDA-MB-231 = assay: cells; conditions: Homo sapiens, time 48 hrs
Description: Growth inhibition of human MDA-MB-231/ATCC cells incubated for 48 hrs by sulforhodamine B assay

TK-10 = assay: cells; conditions: Homo sapiens, time 48 hrs
Description: Growth inhibition of human TK-10 cells incubated for 48 hrs by sulforhodamine B assay

NCI-H322M = assay: cells; conditions: Homo sapiens, time 48 hrs
Description: Growth inhibition of human NCI-H322M cells incubated for 48 hrs by sulforhodamine B assay

NCI-H522 = assay: cells; conditions: Homo sapiens, time 48 hrs
Description: Growth inhibition of human NCI-H522 cells incubated for 48 hrs by sulforhodamine B assay

SF-295 = assay: cells; conditions: Homo sapiens, time 48 hrs
Description: Growth inhibition of human SF-295 cells incubated for 48 hrs by sulforhodamine B assay

HOP-92 = assay: cells; conditions: Homo sapiens, time 48 hrs
Description: Growth inhibition of human HOP-92 cells incubated for 48 hrs by sulforhodamine B assay

UO-31 = assay: cells; conditions: Homo sapiens, time 48 hrs
Description: Growth inhibition of human UO-31 cells incubated for 48 hrs by sulforhodamine B assay

PC-3 = assay: cells; conditions: Homo sapiens, time 48 hrs
Description: Growth inhibition of human PC-3 cells incubated for 48 hrs by sulforhodamine B assay

[4] = test system: Panel melanoma (Carcinoma cell lines); assay: cells; conditions: Homo sapiens, time 48 hrs
Description: Growth inhibition of human Panel melanoma (Carcinoma cell lines) incubated for 48 hrs by sulforhodamine B assay

[5] = test system: Panel colon (Carcinoma cell lines); assay: cells; conditions: Homo sapiens, time 48 hrs
Description: Growth inhibition of human Panel colon (Carcinoma cell lines) incubated for 48 hrs by sulforhodamine B assay

U-251 = assay: cells; conditions: Homo sapiens, time 48 hrs
Description: Growth inhibition of human U-251 cells incubated for 48 hrs by sulforhodamine B assay

MDA-MB-468 = assay: cells; conditions: Homo sapiens, time 48 hrs
Description: Growth inhibition of human MDA-MB-468 cells incubated for 48 hrs by sulforhodamine B assay

Hs-578T = assay: cells; conditions: Homo sapiens, time 48 hrs
Description: Growth inhibition of human Hs-578T cells incubated for 48 hrs by sulforhodamine B assay

[6] = test system: Panel renal (Carcinoma cell lines); assay: cells; conditions: Homo sapiens, time 48 hrs
Description: Growth inhibition of human Panel renal (Carcinoma cell lines) incubated for 48 hrs by sulforhodamine B assay

[7] = test system: Panel prostate (Carcinoma cell lines); assay: cells; conditions: Homo sapiens, time 48 hrs
Description: Growth inhibition of human Panel prostate (Carcinoma cell lines) incubated for 48 hrs by sulforhodamine B assay

UACC-257 = assay: cells; conditions: Homo sapiens, time 48 hrs
Description: Growth inhibition of human UACC-257 cells incubated for 48 hrs by sulforhodamine B assay

MCF7 = assay: cells; conditions: Homo sapiens, time 48 hrs
Description: Growth inhibition of human MCF7 cells incubated for 48 hrs by sulforhodamine B assay

OVCAR-8 = assay: cells; conditions: Homo sapiens, time 48 hrs
Description: Growth inhibition of human OVCAR-8 cells incubated for 48 hrs by sulforhodamine B assay

HOP-62 = assay: cells; conditions: Homo sapiens, time 48 hrs
Description: Growth inhibition of human HOP-62 cells incubated for 48 hrs by sulforhodamine B assay

LOX IMVI = assay: cells; conditions: Homo sapiens, time 48 hrs
Description: Growth inhibition of human LOX IMVI cells incubated for 48 hrs by sulforhodamine B assay

SNB-75 = assay: cells; conditions: Homo sapiens, time 48 hrs
Description: Growth inhibition of human SNB-75 cells incubated for 48 hrs by sulforhodamine B assay

OVCAR-3 = assay: cells; conditions: Homo sapiens, time 48 hrs
Description: Growth inhibition of human OVCAR-3 cells incubated for 48 hrs by sulforhodamine B assay

[8] = test system: Panel leukemia (Carcinoma cell lines); assay: cells; conditions: Homo sapiens, time 48 hrs
Description: Growth inhibition of human Panel leukemia (Carcinoma cell lines) incubated for 48 hrs by sulforhodamine B assay

A498 = assay: cells; conditions: Homo sapiens, time 48 hrs
Description: Growth inhibition of human A498 cells incubated for 48 hrs by sulforhodamine B assay

[9] = test system: Panel CNS (Carcinoma cell lines); assay: cells; conditions: Homo sapiens, time 48 hrs
Description: Growth inhibition of human Panel CNS (Carcinoma cell lines) incubated for 48 hrs by sulforhodamine B assay

A549 = assay: cells; conditions: Homo sapiens, time 48 hrs
Description: Growth inhibition of human A549/ATCC cells incubated for 48 hrs by sulforhodamine B assay

RXF 393 = assay: cells; conditions: Homo sapiens, time 48 hrs
Description: Growth inhibition of human RXF 393 cells incubated for 48 hrs by sulforhodamine B assay

SR = assay: cells; conditions: Homo sapiens, time 48 hrs
Description: Growth inhibition of human SR cells incubated for 48 hrs by sulforhodamine B assay

HCT-116 = assay: cells; conditions: Homo sapiens, time 48 hrs
Description: Growth inhibition of human HCT-116 cells incubated for 48 hrs by sulforhodamine B assay

K562 = assay: cells; conditions: Homo sapiens, time 48 hrs
Description: Growth inhibition of human K562 cells incubated for 48 hrs by sulforhodamine B assay

NCI-H460 = assay: cells; conditions: Homo sapiens, time 48 hrs
Description: Growth inhibition of human NCI-H460 cells incubated for 48 hrs by sulforhodamine B assay

HCT-15 = assay: cells; conditions: Homo sapiens, time 48 hrs
Description: Growth inhibition of human HCT-15 cells incubated for 48 hrs by sulforhodamine B assay

[10] = read-out: LC50 (the source's name)

CC(C)c1ccc(Nc2ccc3c(OCCCN4CCN(C)CC4)cccc3n2)cc1
GI50 (NCI-H226): 18.8 µM | GI50 (SK-MEL-28): 1.89 µM | GI50 [1]: 9.95 µM | GI50 [2]: 7.76 µM | GI50 [3]: 15.6 µM | GI50 (NCI-H23): 11.9 µM | GI50 (OVCAR-4): 13.9 µM | GI50 (UACC-62): 2.17 µM | GI50 (HT-29): 2.16 µM | GI50 (KM12): 11.3 µM | GI50 (CCRF-CEM): 3.74 µM | GI50 (IGROV-1): 16.1 µM | GI50 (cells): 13.2 µM | GI50 (MDA-MB-231): 2.11 µM | GI50 (TK-10): 16.5 µM | GI50 (NCI-H322M): 11 µM | GI50 (NCI-H522): 19.9 µM | GI50 (SF-295): 3.63 µM | GI50 (HOP-92): 10.6 µM | GI50 (UO-31): 12.9 µM | GI50 (PC-3): 12.9 µM | GI50 [4]: 6.62 µM | GI50 [5]: 4.85 µM | GI50 (U-251): 3.28 µM | GI50 (MDA-MB-468): 12.3 µM | GI50 (Hs-578T): 16.9 µM | GI50 [6]: 13.2 µM | GI50 [7]: 13.4 µM | GI50 (UACC-257): 5.65 µM | GI50 (MCF7): 3.21 µM | GI50 (OVCAR-8): 17.8 µM | GI50 (HOP-62): 11.9 µM | GI50 (LOX IMVI): 1.86 µM | GI50 (SNB-75): 12.8 µM | GI50 (OVCAR-3): 14.4 µM | GI50 [8]: 4.24 µM | GI50 (A498): 16.4 µM | GI50 [9]: 9.25 µM | GI50 (A549): 15.6 µM | GI50 (RXF 393): 7.28 µM | GI50 (SR): 2.85 µM | GI50 (HCT-116): 5.9 µM | GI50 (K562): 2.05 µM | GI50 (NCI-H460): 5.44 µM | GI50 (HCT-15): 1.94 µM

Fc1cc(Nc2ccc3c(OCCCN4CCOCC4)cccc3n2)ccc1Cl
GI50 (NCI-H226): 2.76 µM | GI50 (SK-MEL-28): 1.82 µM | GI50 [1]: 2.48 µM | GI50 [2]: 2.24 µM | GI50 [3]: 3.07 µM | GI50 (NCI-H23): 2.21 µM | GI50 (OVCAR-4): 3.75 µM | GI50 (UACC-62): 2.32 µM | GI50 (HT-29): 1.53 µM | GI50 (KM12): 2.3 µM | GI50 (CCRF-CEM): 2.48 µM | GI50 (IGROV-1): 3.19 µM | GI50 (cells): 2.41 µM | GI50 (MDA-MB-231): 1.53 µM | GI50 (TK-10): 2.01 µM | GI50 (NCI-H322M): 2.53 µM | GI50 (NCI-H522): 1.72 µM | GI50 (SF-295): 1.97 µM | GI50 (HOP-92): 2.4 µM | GI50 (UO-31): 1.65 µM | GI50 (PC-3): 2.08 µM | GI50 [4]: 2.01 µM | GI50 [5]: 1.97 µM | GI50 (U-251): 1.85 µM | GI50 (MDA-MB-468): 2.08 µM | GI50 (Hs-578T): 2.19 µM | GI50 [6]: 2.42 µM | GI50 [7]: 2.85 µM | GI50 (UACC-257): 2.18 µM | GI50 (MCF7): 1.68 µM | GI50 (OVCAR-8): 4.03 µM | GI50 (HOP-62): 1.71 µM | GI50 (LOX IMVI): 1.71 µM | GI50 (SNB-75): 1.86 µM | GI50 (OVCAR-3): 3.08 µM | GI50 [8]: 2.18 µM | GI50 (A498): 2.42 µM | GI50 [9]: 2.16 µM | GI50 (A549): 2.96 µM | GI50 (RXF 393): 2.16 µM | GI50 (SR): 1.69 µM | GI50 (HCT-116): 2.76 µM | GI50 (K562): 1.91 µM | GI50 (NCI-H460): 3.07 µM | GI50 (HCT-15): 1.4 µM

CN1CCN(CCCOc2cccc3nc(Nc4ccc(Cl)c(F)c4)ccc23)CC1
GI50 (NCI-H226): 2.05 µM | GI50 (SK-MEL-28): 1.72 µM | GI50 [1]: 1.84 µM | TGI [1]: 4.5 µM | CC50 [1, 10]: 13.2 µM | GI50 [2]: 1.82 µM | TGI [2]: 3.89 µM | CC50 [2, 10]: 9.12 µM | GI50 [3]: 1.99 µM | LC50 [3]: 11.3 µM | TGI [3]: 4.87 µM | GI50 (NCI-H23): 1.75 µM | GI50 (OVCAR-4): 3.13 µM | GI50 (UACC-62): 2.05 µM | GI50 (HT-29): 1.41 µM | GI50 (KM12): 1.77 µM | GI50 (IGROV-1): 1.95 µM | GI50 (cells): 1.75 µM | LC50 (50% lethal concentration) (cells): 9.98 µM | TGI (cells): 3.88 µM | GI50 (MDA-MB-231): 1.68 µM | GI50 (TK-10): 1.81 µM | GI50 (NCI-H322M): 1.7 µM | GI50 (NCI-H522): 1.75 µM | GI50 (SF-295): 1.79 µM | GI50 (HOP-92): 1.33 µM | GI50 (UO-31): 1.57 µM | GI50 (PC-3): 1.76 µM | GI50 [4]: 1.82 µM | LC50 [4]: 6.77 µM | TGI [4]: 3.5 µM | GI50 [5]: 1.62 µM | TGI [5]: 3.17 µM | CC50 [5, 10]: 6.21 µM | GI50 (U-251): 1.81 µM | GI50 (MDA-MB-468): 1.72 µM | GI50 (Hs-578T): 2.12 µM | GI50 [6]: 2.22 µM | LC50 (lethal concentration 50%) [6]: 19.8 µM | TGI [6]: 6.21 µM | GI50 [7]: 1.76 µM | LC50 (concentration killing 50% of cells) [7]: 6.21 µM | TGI [7]: 2.8 µM | GI50 (UACC-257): 2.04 µM | GI50 (MCF7): 1.31 µM | GI50 (OVCAR-8): 2.02 µM | GI50 (HOP-62): 1.45 µM | GI50 (LOX IMVI): 1.64 µM | GI50 (OVCAR-3): 1.7 µM | GI50 [8]: 1.9 µM | LC50 (50% lethal concentration) [8]: 53.9 µM | TGI [8]: 4.28 µM | GI50 (A498): 2.39 µM | GI50 [9]: 1.74 µM | TGI [9]: 3.35 µM | CC50 [9, 10]: 6.46 µM | GI50 (A549): 1.96 µM | GI50 (RXF 393): 1.96 µM | GI50 (HCT-116): 1.56 µM | GI50 (K562): 1.47 µM | GI50 (NCI-H460): 1.91 µM | GI50 (HCT-15): 1.4 µM

COc1cc2ncnc(Nc3ccc(F)c(Cl)c3)c2cc1OCCCN1CCOCC1 [GEFITINIB]
GI50 [8]: 3.54 µM

Clc1cc(Cl)cc(Nc2ccc3c(OCCCN4CCOCC4)cccc3n2)c1
GI50 (NCI-H226): 3.16 µM | GI50 (SK-MEL-28): 1.65 µM | GI50 [1]: 3.33 µM | GI50 [2]: 2.57 µM | GI50 [3]: 4.02 µM | GI50 (NCI-H23): 2.94 µM | GI50 (OVCAR-4): 10.3 µM | GI50 (UACC-62): 2.01 µM | GI50 (HT-29): 1.76 µM | GI50 (KM12): 2 µM | GI50 (CCRF-CEM): 2.36 µM | GI50 (IGROV-1): 3.9 µM | GI50 (cells): 2.53 µM | GI50 (MDA-MB-231): 1.8 µM | GI50 (TK-10): 2.38 µM | GI50 (NCI-H322M): 2.51 µM | GI50 (NCI-H522): 1.82 µM | GI50 (SF-295): 1.92 µM | GI50 (HOP-92): 2.03 µM | GI50 (UO-31): 1.51 µM | GI50 (PC-3): 1.94 µM | GI50 [4]: 3.02 µM | GI50 [5]: 1.83 µM | GI50 (U-251): 1.98 µM | GI50 (MDA-MB-468): 2.08 µM | GI50 (Hs-578T): 2.51 µM | GI50 [6]: 3.96 µM | GI50 [7]: 2.49 µM | GI50 (UACC-257): 2.05 µM | GI50 (MCF7): 1.74 µM | GI50 (OVCAR-8): 3.54 µM | GI50 (HOP-62): 2.29 µM | GI50 (LOX IMVI): 1.72 µM | GI50 (OVCAR-3): 2.92 µM | GI50 [8]: 2.35 µM | GI50 (A498): 2.39 µM | GI50 [9]: 2.18 µM | GI50 (A549): 2.6 µM | GI50 (RXF 393): 2.26 µM | GI50 (HCT-116): 1.82 µM | GI50 (K562): 2.21 µM | GI50 (NCI-H460): 2.43 µM | GI50 (HCT-15): 1.75 µM

From ChEMBL document CHEMBL4715724, “Novel 5-substituted-2-anilinoquinolines with 3-(morpholino or 4-methylpiperazin-1-yl)propoxy moiety as broad spectrum antiproliferative agents: Synthesis, cell based assays and kinase screening” (Bioorg Med Chem Lett, 2016)
